The results in this text go back to US20250170137A1, “Compositions for preventing or treating heart failure (HF)” (CHONG KUN DANG PHARMACEUTICAL CORP., priority 2022, published 2025).

For data set [1], the system named is acetyl tubulin in H9c2 cells. As to the kind of experiment: Effect on acetyl tubulin in H9c2 cells (western blot). It counts as cell-based, Rat. The following applies: treated for each concentration, four hours at 37° C., western blot vs GAPDH (FIGS. 1 and 2). On the procedure:
H9c2 (2.0×10^5 cells/well, Rat, heart, myoblast) cells were seeded in a six-well plate and treated with drugs (compounds 43, 295, 296, 40, 239, and 285) for each concentration. In four hours later at 37° C., proteins were extracted with lysis buffer and quantified by Bradford method. […] of proteins were dissolved in sample buffer, electrophoresed on 4-12% gradient gel, transferred to a nitrocellulose membrane for seven minutes, and blocked in 3% BSA solution for one hour. Anti-acetyl tubulin (1:1,000) and GAPDH (1:2,000) were added to a 3% BSA solution, after which the membrane was immersed therein and reacted at 4° C. for 10 hours, and then washed three times with 1×TBST for 10 minutes each. IgG-HRP antibody (1:5,000) was added to 5% BSA, after which the membrane was immersed therein and reacted at room temperature for one hour, and then washed three times with 1×TBST for 10 minutes each.

Data set [2] relates to isolated heart of normal rabbits. The data set is described as follows: Langendorff evaluation of heart safety (Q-T interval of ECG). Further details: species or system Rabbit. The following applies: for Q-T interval: normal rabbit heart, ECG 30 minutes later, n = 6, mean ± standard error; for effect on QT interval compared to normal ECG (in words): dofetilide 0.3 μM and 1 μM, compound 43 1 μM (FIGS. 5 and 6). Here is the method: (§1) The male rabbits were anesthetized by breathing, and the hearts were removed therefrom. After removing the connective tissues, the hearts were perfused with 37° C. physiological solution (modified KrebsHenseleit bicarbonate buffer; composition: 116 mM/L NaCl, 4.7 mM/L KCl, 1.1 mM/L MgSO4, 1.17 mM/L KH2PO4, 24.9 mM/L NaHCO3, 2.52 mM/L CaCl2), 8.32 mM/L glucose) saturated with 95% O2/5% CO2 under constant pressure perfusion, and electrodes were connected at the atrium and ventricle so as to confirm a stabilization state by measuring an electrocardiogram for one hour.
After confirming the stabilization state of the heart through the electrocardiogram for one hour, the compound was administered to the physiological solution, and the electrocardiogram was measured in 30 minutes later so as to analyze the Q-T interval.
Using dofetilide as a control drug, the effect of the compound according to the present disclosure (compound 43: compound of Synthesis Example 1) on the QT interval of ECG was confirmed in normal rabbits.
Rabbits were prepared under the same conditions as in 1) and divided into a normal group, a dofetilide-treated group, and a compound 43-treated group, after which the hearts of the rabbits were extracted according to the Langendorff experimental method in 2-2), so as to analyze the Q-T interval according to 2-3), and the results thereof are shown in FIGS. 5 and 6 and in Tables 2 and 3 below. In above FIGS. 5 and 6 and Tables 2 and 3, the Control may refer to a normal group, and all data values in Tables 2 and 3 are expressed as mean standard error.

For data set [3], the system named is beagle dogs with induced heart disease. As to the kind of experiment: Anti-fibrotic activity in tachycardia pacing heart disease model (western blot of cardiac tissue). It counts as in vivo, beagle dog. To be noted: 1 mg/kg capsule, Bid, P.O.; tachycardia pacing 400 bpm; compared to group not dosed (FIG. 7). On the procedure: For the introduction of anesthetic to the beagle dogs (male, 11 months old), pentobarbital (25 mg/kg) was intravenously administered thereto, and anesthesia was maintained through Isoflurane. A pacemaker's in vivo implantable electrode (bipolar pacing lead, Medtronic, IRE) was placed in the right atrial appendage by using C-arm (ARCADIS Varic, SIEMENS Co.) equipment and vascular contrast media, and then it was checked if the same was correctly inserted through a contrast image, and then the pacemaker's lead was fixed in the right atrial appendage. After stabilization for one week after surgery, the pacemaker was operated at 400 bpm to confirm normal induction by electrocardiography, and then tachycardia pacing was induced. Hemodynamic parameters for each group were measured. […]
In order to confirm the effect of the compound according to the present disclosure on preventing or treating heart failure disease, the expression of α-SMA and TGF-β, which are directly related to fibrosis in cardiac tissues, was analyzed. […] The expression of α-SMA and TGF-β was analyzed for each protein through western blot, so as to compare the degree of cardiac fibrosis between groups, and the results thereof are shown in FIG. 7.

Data set [4] concerns acetylated tubulin in atrial and ventricular tissues. As to the kind of experiment: Acetylated tubulin in atrial and ventricular tissues in heart damage mimicking conditions (Tachycardia pacing). To be noted: compound in physiological solution, western blot, compared to vehicle (FIGS. 10 and 11). On the set-up: species or system Rabbit. On the procedure:
Male rabbits were prepared in the same manner as in Example 1, and the rabbits were divided into a normal group (Sham), a drug-untreated group (vehicle), and a drug-treated group (Compound).
After that, the heart was evaluated by the Langendorff experimental method as in 2-1) of 2) in Example 2. For the drug-treated group, the heart was treated with the drug by administering compound 43 (compound according to Synthesis Example 1) to physiological solution as in 2-2) of 2) in Example 2.
Then, the atria and the ventricles were separated, and then proteins were isolated from each tissue. The expression of acetylated tubulin was analyzed for each protein through western blot, so as to compare the expression levels between groups, and the results thereof are shown in FIGS. 10 and 11. * may mean P<0.05, ** may refer to P<0.01, and *** may represent less than P<0.001.

Data set [5] relates to iPSC-CM myocardial cells derived from patients with dilated cardiomyopathy (DCMP) heart failure. The data set is described as follows: Ca2+ transient activity in DCMP iPSC-CM accompanied by TPM1 mutation. In kind it is cell-based, human. To be noted: 0.1-3 μM for 24 hours, 3 Hz stimulation 24 hours, Fluo-4 (FIG. 9). On the procedure:
In order to confirm the effect of the compound according to the present disclosure on preventing or treating heart failure disease, Ca^2+ transients in iPSC-CM myocardial cells derived from patients with dilated cardiomyopathy (DCMP) heart failure were analyzed.
Myocardial cells derived from patients with heart failure were treated with compound 43 (Synthesis Example 1) for each concentration for 24 hours. After that, 3 Hz stimulation was given to both iPSC-CM myocardial cells derived from normal people (normal group, Normal) and iPSC-CM myocardial cells derived from patients with dilated cardiomyopathy (DCMP) heart failure for 24 hours in heart damage mimicking conditions (Tachycardia pacing). After each group was treated with Fluo-4 (AM, cell permeant-Thermo Fisher Scientific), a cell-permeable calcium dye, Ca^2+ images were taken in real time with a confocal microscope, so as to compare and analyze Ca^2+ transients between groups. Then, the results of the cells obtained from normal people are shown in FIG. 8, while the results of the cells obtained from patients with DCMP heart failure are shown in FIG. 9. Normal in above FIG. 8 may refer to myocardial cells not treated with Tachycardia pacing, and 0, 0.1, 1 and 3 in FIGS. 8 and 9 may represent the concentrations of compound 43 (compound of Synthesis Example 1) in cells treated with Tachycardia pacing. […]

For data set [6], the system named is isolated rabbit heart. As to the kind of experiment: Langendorff evaluation of ventricular functions in heart damage mimicking conditions (Tachycardia pacing).
Source text: The Langendorff test method was used to evaluate the therapeutic effect of the compound on heart damage. The Langendorff test method is known as a test method that helps to determine the direct effect of the compound on the heart in terms of efficacy and safety. In particular, the method is easy to measure actual cardiac contractility and heart rates by removing peripheral hemodynamic variables that may extracardially interfere in experimental animals, and has the advantage of being able to intensively investigate a correlation between chemical structure and pharmacological action using various doses of the compound.
as §1
After confirming the stabilization state of the heart for one hour through an electrocardiogram, a heart damage stimulation with 50 Hz tachycardia pacing was applied for 30 minutes. After measuring the electrocardiogram of the atrium and ventricle, a test target compound (compound 43: the compound of […]) was administered to physiological solution, and the electrocardiogram was measured in one hour later. In order to check whether a drug effect is maintained even after the compound is removed from the physiological solution, the physiological solution containing the compound, in which the rabbit heart was immersed, was washed out, and the physiological solution without the compound was administered, so as to measure the electrocardiogram in one hour later.
The effect of the compound on improving ventricular functions was analyzed in ex vivo heart damage mimicking conditions (Tachycardia pacing), and the results thereof are shown in FIGS. 3 and 4 and Table 1. In above FIG. 4, ** on the graph may refer to P<0.01 when compared with the normal group(Sham), and ## may mean P<0.01 when compared with Tachycardia pacing (Comparative group, vehicle).

Turning to `O=C(N1CCS(=O)(=O)CC1)N(Cc1ccc(-c2nnc(C(F)F)o2)cc1F)c1ccccc1` [Compound 40, N-(4-(5-(difluoromethyl)-1,3,4-oxadiazol-2-yl)-2-fluorobenzyl)-N-phenylthiomorpholine-4-carboxamide 1,1-dioxide], the “concentration of acetyl tubulin in H9c2 cells” value (“concentration of acetyl tubulin” below) in data set [1] is reported as “increase the concentration of acetyl tubulin in H9c2 cells in a concentration-correlated manner”.
Regarding `O=C(N1CCS(=O)(=O)CC1)N(Cc1ccc(-c2nnc(C(F)F)o2)cn1)c1cccc(Cl)c1` [Compound 239, N-(3-chlorophenyl)-N-((5-(5-(difluoromethyl)-1,3,4-oxadiazol-2-yl)pyridin-2-yl)methyl)thiomorpholine-4-carboxamide 1,1-dioxide], the “concentration of acetyl tubulin” value in data set [1] was “increase the concentration of acetyl tubulin in H9c2 cells in a concentration-correlated manner”.
Turning to `O=C(N1CCS(=O)(=O)CC1)N(Cc1ccc(-c2nnc(C(F)F)o2)cc1F)c1ccc(F)cc1` [Compound 285, N-(4-(5-(difluoromethyl)-1,3,4-oxadiazol-2-yl)-2-fluorobenzyl)-N-(4-fluorophenyl)thiomorpholine-4-carboxamide 1,1-dioxide], the “concentration of acetyl tubulin” value in data set [1] is “increase the concentration of acetyl tubulin in H9c2 cells in a concentration-correlated manner”.
As to `O=C(N1CCS(=O)(=O)CC1)N(Cc1ccc(-c2nnc(C(F)F)o2)cn1)c1ccc(F)cc1` [Compound 295, N-((5-(5-(difluoromethyl)-1,3,4-oxadiazol-2-yl)pyridin-2-yl)methyl)-N-(4-fluorophenyl)thiomorpholine-4-carboxamide 1,1-dioxide], the “concentration of acetyl tubulin” value in data set [1] was “increase the concentration of acetyl tubulin in H9c2 cells in a concentration-correlated manner”.
Regarding `O=C(N1CCS(=O)(=O)CC1)N(Cc1ccc(-c2nnc(C(F)F)o2)cn1)c1cccc(F)c1` [Compound 296, N-((5-(5-(difluoromethyl)-1,3,4-oxadiazol-2-yl)pyridin-2-yl)methyl)-N-(3-fluorophenyl)thiomorpholine-4-carboxamide 1,1-dioxide], the “concentration of acetyl tubulin” value in data set [1] was “increase the concentration of acetyl tubulin in H9c2 cells in a concentration-correlated manner”.
For the molecule `CN(CCOc1ccc(NS(C)(=O)=O)cc1)CCc1ccc(NS(C)(=O)=O)cc1` [Dofetilide, dofetilide], the values for the Q-T interval in data set [2] (0.3 μM) and in data set [2] (1 μM) were 199.2 ± 17.8 ms and 205.4 ± 26.3 ms, respectively. The “effect on QT interval compared to normal ECG (in words)” value in data set [2] was “increased at both 0.3 μM and 1 μM”.
For the molecule `O=C(N1CCS(=O)(=O)CC1)N(Cc1ccc(-c2nnc(C(F)F)o2)cn1)c1ccccc1` [compound 43, N-((5-(5-(difluoromethyl)-1,3,4-oxadiazol-2-yl)pyridin-2-yl)methyl)-N-phenylthiomorpholine-4-carboxamide 1,1-dioxide], in data set [3], the “expression of TGF-β in cardiac tissue” value is listed as “reduced expression” and the “expression of α-SMA in cardiac tissue” value is recorded as “reduced expression”. This molecule also gave a Q-T interval in data set [2] (1 μM) of 125.4 ± 1.7 ms. Further, the “effect on QT interval compared to normal ECG (in words)” value in data set [2] is given as “not affected”. Also, in data set [4], the “expression of acetylated tubulin in atria and ventricles” value is given as “restored to that of the normal group (Sham)”. For the same molecule, the “Ca2+ transients” value in data set [5] is listed as “Ca^2+ transients are recovered”. Also, the “R-R interval, Average” value in data set [6] (1 μM in physiological solution, ECG one hour later, after 50 Hz tachycardia pacing for 30 minutes) was 240.8 ms. Also, the “electrocardiogram (ventricular functions)” value in data set [6] (1 μM, tachycardia pacing (FIG. 3)) is “improved to a degree of the normal group (Control)”. Further, the “cardioversion effect after the compound is removed” value in data set [6] (after wash out of 1 μM compound (FIG. 3)) is on record as “maintained for at least one hour”. In addition, the “R-R interval, Average, Wash out” value in data set [6] (one hour after compound washed out of physiological solution, after 50 Hz tachycardia pacing) was determined as 239.9 ms. For the same molecule, the “concentration of acetyl tubulin” value in data set [1] is listed as “increase the concentration of acetyl tubulin in H9c2 cells in a concentration-correlated manner”.
